Data reported in PMC11062899, “De novo development of small cyclic peptides that are orally bioavailable” (Nature Chemical Biology, 2023).
Where “and” joins values, the source holds several entries; their conditions need not be identical. Equal entries are not always repeated.

Columns and labels:
human α-thrombin = human α-thrombin (Homo sapiens, UniProt P00734); assay: Protease inhibition, Ki for human α-thrombin (fluorogenic substrate Z-Gly-Gly-Arg-AMC); assay type: biochemical; conditions: replicates R1-R3
Method in brief: (§1)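 Ki derived through Cheng–Prusoff from IC50s (four-parameter logistic fit) against activity of peptide-free controls. Product fluorescence was read every 3 min over 30 min at 25 °C, substrate Z-Gly-Gly-Arg-AMC at 50 μM. Enzyme was 2 nM human or 3 nM rat α-thrombin, pH 7.4 buffer.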

rat α-thrombin = molecular target: T1, rat α-thrombin (Rattus norvegicus, UniProt P18292); assay: Protease inhibition, Ki for rat α-thrombin (fluorogenic substrate Z-Gly-Gly-Arg-AMC); assay type: biochemical; conditions: replicates R1-R3
T1 construct: rat α-thrombin (Molecular Innovations) were used at final concentrations of 2 nM and 3 nM; purchased Molecular Innovations
Method in brief: as §1

porcine pepsin = molecular target: T2, porcine pepsin (Sus scrofa, UniProt P00791); assay: Peptide stability in simulated gastric fluid (SGF); assay type: in vitro ADME; conditions: for SGF stability, Residual peptide Average / SGF stability, Residual peptide: after 8 h vs 0 h (TIC); for SGF stability, Residual peptide Average: average of R1-R3; for SGF stability, Residual peptide: single replicates R1-R3; for remaining at 8 h: simulated gi fluid, 37 °C, pH 1.2, read-out: Proteolytic stability: SGF (8 h) % remaining
T2 construct: 0.32 g of porcine pepsin (Sigma-Aldrich, P7125) was dissolved under gentle agitation; purchased Sigma-Aldrich P7125
T2 sequence (P00791 60-385): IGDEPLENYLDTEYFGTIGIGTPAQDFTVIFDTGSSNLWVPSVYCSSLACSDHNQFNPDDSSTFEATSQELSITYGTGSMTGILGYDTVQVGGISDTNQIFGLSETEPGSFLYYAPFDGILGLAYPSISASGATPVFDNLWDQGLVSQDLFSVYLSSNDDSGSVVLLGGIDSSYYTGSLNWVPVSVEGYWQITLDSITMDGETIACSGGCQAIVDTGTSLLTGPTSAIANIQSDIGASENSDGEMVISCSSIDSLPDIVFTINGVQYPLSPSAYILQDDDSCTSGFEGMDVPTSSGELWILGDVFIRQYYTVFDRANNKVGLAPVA
Method: (§2) Simulated gastric and intestinal fluids were prepared according to the States Pharmacopeia specifications (Test Solutions, United States Pharmacopeia 35, NF 30, 2012). SGF: 0.2 g of sodium chloride was dissolved in 50 ml of water, and the pH was adjusted to 1.2 by addition of 0.7 ml of 10 M hydrochloric acid. Then, 0.32 g of porcine pepsin (Sigma-Aldrich, P7125) was dissolved under gentle agitation, and the volume was filled up to 100 ml with Milli-Q water. SIF: 0.68 g of monobasic potassium phosphate was dissolved in 25 ml of Milli-Q water, and the pH was adjusted to 6.8 by adding 7.7 ml of a 0.2 M sodium hydroxide solution. Next, 1 g of porcine pancreatin (Sigma-Aldrich, P3292) was added under gentle agitation, and the volume was adjusted to 100 ml with Milli-Q water to afford a fine suspension. To test the stability in simulated gastrointestinal fluids, 396 μl of SGF or SIF was pre-heated at 37 °C for 10 min, and 4 μl of a 1 mM peptide solution in DMSO was added. […] Supernatant was analyzed by LC–MS to measure the peptide concentrations at the different timepoints. Residual peptide was calculated by normalizing the concentrations measured at T1 to T0.

[1] = Peptide stability in simulated intestinal fluid (SIF); assay type: in vitro ADME, porcine; conditions: simulated gi fluid; 8 h, 37 °C, pH 6.8; read-out: Proteolytic stability: SIF (8 h) % remaining
Method: as §2

porcine pancreatin = assay: as above; assay type: in vitro ADME; conditions: after 8 h vs 0 h (TIC); for SIF stability, Residual peptide Average: average of R1-R3; for SIF stability, Residual peptide: single replicates R1-R3
Method: as §2

[2] = Passive artificial membrane permeability (PAMPA); conditions: for PAMPA permeability: % permeability: 50 μM, 12–18 h, acceptor concentration relative to equilibrium; for Papp at 50 μM / Permeability% Average / Permeability% R1 / Permeability% R3: PAMPA; for Papp at 50 μM: pH 7.4; for Permeability% Average: average of R1-R3; for Permeability% R1: replicate R1; for Permeability% R1 / Permeability% R3: TIC of top well sample relative to sample at theoretical equilibrium; for Permeability% R3: replicate R3
[3] = Metabolic stability in rat liver microsomes (RLMs); conditions: rat, microsomes
[4] = peptide 1.33E+02 uM, slope of proteolytic substrate cleavage over time
[5] = CL (ul/min/mg protein) R1, RLM CL, replicate R1
[6] = CL (ul/min/mg protein) R2, RLM CL, replicate R2
[7] = CL (ul/min/mg protein) R3, RLM CL, replicate R3
[8] = Half Life (min) R1, RLM metabolic stability, replicate R1, 0-60 min
[9] = Half Life (min) R2, RLM metabolic stability, replicate R2, 0-60 min
[10] = Half Life (min) R3, RLM metabolic stability, replicate R3, 0-60 min
[11] = Metabolic stability: Half life T1/2 (min), RLMs, mean and SD, three measurements
[12] = Metabolic stability: RLM CL (ul/min/mg), RLMs, mean and SD, three measurements

C[C@@H]1NC(=O)[C@@H](NC(=O)c2ccc(Cl)s2)CSCc2cccc(n2)CSCCNC(=O)c2ccc(cc2)CNC1=O [compound 26]
Human alpha thrombin inhibition, slope normalized to DMSO (human α-thrombin; peptide 1.02E-03 uM): 99.9 and 93.8 and 93.5 | Human alpha thrombin inhibition, slope normalized to DMSO (human α-thrombin; peptide 1.04E+00 uM): 74.0 and 69.6 and 63.3 | Human alpha thrombin inhibition, slope normalized to DMSO (human α-thrombin; peptide 1.27E-04 uM): 95.9 and 97.1 and 89.9 | Human alpha thrombin inhibition, slope normalized to DMSO (human α-thrombin; peptide 1.30E-01 uM): 97.4 and 88.7 and 84.7 | Human alpha thrombin inhibition, slope normalized to DMSO (human α-thrombin; [4]): 48.0 and 48.9 and 38.9 | Human alpha thrombin inhibition, slope normalized to DMSO (human α-thrombin; peptide 1.63E-02 uM): 100.4 and 97.8 and 90.3 | Human alpha thrombin inhibition, slope normalized to DMSO (human α-thrombin; peptide 1.67E+01 uM): 53.6 and 73.4 and 36.5 | Human alpha thrombin inhibition, slope normalized to DMSO (human α-thrombin; peptide 2.03E-03 uM): 104.9 and 96.2 and 90.3 | Human alpha thrombin inhibition, slope normalized to DMSO (human α-thrombin; peptide 2.08E+00 uM): 55.5 and 68.9 and 56.1 | Human alpha thrombin inhibition, slope normalized to DMSO (human α-thrombin; peptide 2.54E-04 uM): 98.8 and 99.4 and 90.5 | Human alpha thrombin inhibition, slope normalized to DMSO (human α-thrombin; peptide 2.60E-01 uM): 80.8 and 89.0 and 86.0 | Human alpha thrombin inhibition, slope normalized to DMSO (human α-thrombin; peptide 3.18E-05 uM): 84.7 and 96.5 and 92.2 | Human alpha thrombin inhibition, slope normalized to DMSO (human α-thrombin; peptide 3.26E-02 uM): 93.0 and 90.7 and 88.1 | Human alpha thrombin inhibition, slope normalized to DMSO (human α-thrombin; peptide 3.33E+01 uM): 66.3 and 62.6 and 52.3 | Human alpha thrombin inhibition, slope normalized to DMSO (human α-thrombin; peptide 4.07E-03 uM): 103.1 and 97.8 and 89.7 | Human alpha thrombin inhibition, slope normalized to DMSO (human α-thrombin; peptide 4.17E+00 uM): 60.4 and 78.0 and 53.8 | Human alpha thrombin inhibition, slope normalized to DMSO (human α-thrombin; peptide 5.09E-04 uM): 103.6 and 97.9 and 97.0 | Human alpha thrombin inhibition, slope normalized to DMSO (human α-thrombin; peptide 5.21E-01 uM): 81.6 and 82.6 and 73.0 | Human alpha thrombin inhibition, slope normalized to DMSO (human α-thrombin; peptide 6.36E-05 uM): 100.1 and 99.2 and 93.6 | Human alpha thrombin inhibition, slope normalized to DMSO (human α-thrombin; peptide 6.51E-02 uM): 92.5 and 99.9 and 84.8 | Human alpha thrombin inhibition, slope normalized to DMSO (human α-thrombin; peptide 6.67E+01 uM): 54.4 and 57.2 and 52.4 | Human alpha thrombin inhibition, slope normalized to DMSO (human α-thrombin; peptide 8.14E-03 uM): 104.4 and 96.4 and 91.9 | Human alpha thrombin inhibition, slope normalized to DMSO (human α-thrombin; peptide 8.33E+00 uM): 36.8 and 64.2 and 38.3 | Rat alpha thrombin inhibition, slope normalized to DMSO (rat α-thrombin; [4]): 14.8 and 14.9 and 15.8 | Rat alpha thrombin inhibition, slope normalized to DMSO (rat α-thrombin; peptide 1.67E+01 uM): 13.6 and 25.5 and 34.3 | Rat alpha thrombin inhibition, slope normalized to DMSO (rat α-thrombin; peptide 2.08E+00 uM): 26.5 and 27.8 and 27.7 | Rat alpha thrombin inhibition, slope normalized to DMSO (rat α-thrombin; peptide 3.33E+01 uM): 22.7 and 27.1 and 25.7 | Rat alpha thrombin inhibition, slope normalized to DMSO (rat α-thrombin; peptide 4.17E+00 uM): 20.6 (2×) and 20.4 | Rat alpha thrombin inhibition, slope normalized to DMSO (rat α-thrombin; peptide 6.67E+01 uM): 19.9 and 22.5 and 21.1 | Rat alpha thrombin inhibition, slope normalized to DMSO (rat α-thrombin; peptide 8.33E+00 uM): 13.5 and 20.1 and 24.1 | SGF stability, Residual peptide Average (porcine pepsin): 97.08 | SGF stability, Residual peptide (porcine pepsin): 97.29 and 98.54 and 95.42 | remaining at 8 h (porcine pepsin): 97 ± 2% | remaining at 8 h [1]: 88 ± 5% | SIF stability, Residual peptide Average (porcine pancreatin): 88.29 | SIF stability, Residual peptide (porcine pancreatin): 90.18 and 82.19 and 92.51 | PAMPA permeability: % permeability [2]: 4.3 ± 1.6% | Papp at 50 μM [2]: 0.275 ×10⁻⁶ cm/s | Permeability% Average [2]: 4.3% | Permeability% R1 [2]: 2.49% | Permeability% R3 [2]: 5.45% | microsomal CLint [3, 5]: 73.3 µL/min/mg | microsomal CLint [3, 6]: 121 µL/min/mg | microsomal CLint [3, 7]: 129 µL/min/mg | half-life [3, 8]: 18.9 min | half-life [3, 9]: 11.4 min | half-life [3, 10]: 10.8 min | half-life [3, 11]: 13.7 ± 3.7 min | microsomal CLint [3, 12]: 108 ± 25 µL/min/mg

O=C1NCCSCc2cccc(n2)CSC[C@H](NC(=O)c2ccc(Cl)s2)C(=O)N[C@@H](CO)C(=O)NCc2ccc1cc2 [compound 25]
Human alpha thrombin inhibition, slope normalized to DMSO (human α-thrombin; peptide 1.02E-03 uM): 94.7 and 95.3 and 98.5 | Human alpha thrombin inhibition, slope normalized to DMSO (human α-thrombin; peptide 1.04E+00 uM): 75.5 and 74.4 and 76.2 | Human alpha thrombin inhibition, slope normalized to DMSO (human α-thrombin; peptide 1.27E-04 uM): 97.4 and 68.3 and 98.0 | Human alpha thrombin inhibition, slope normalized to DMSO (human α-thrombin; peptide 1.30E-01 uM): 93.0 and 91.1 and 92.8 | Human alpha thrombin inhibition, slope normalized to DMSO (human α-thrombin; [4]): 13.5 and 15.1 and 12.6 | Human alpha thrombin inhibition, slope normalized to DMSO (human α-thrombin; peptide 1.63E-02 uM): 97.4 and 90.6 and 97.7 | Human alpha thrombin inhibition, slope normalized to DMSO (human α-thrombin; peptide 1.67E+01 uM): 26.1 and 29.0 and 29.2 | Human alpha thrombin inhibition, slope normalized to DMSO (human α-thrombin; peptide 2.03E-03 uM): 98.6 and 102.5 and 100.6 | Human alpha thrombin inhibition, slope normalized to DMSO (human α-thrombin; peptide 2.08E+00 uM): 73.0 and 60.5 and 66.8 | Human alpha thrombin inhibition, slope normalized to DMSO (human α-thrombin; peptide 2.54E-04 uM): 97.8 and 93.6 and 92.8 | Human alpha thrombin inhibition, slope normalized to DMSO (human α-thrombin; peptide 2.60E-01 uM): 88.6 and 90.7 and 89.6 | Human alpha thrombin inhibition, slope normalized to DMSO (human α-thrombin; peptide 3.18E-05 uM): 97.1 and 94.4 and 99.6 | Human alpha thrombin inhibition, slope normalized to DMSO (human α-thrombin; peptide 3.26E-02 uM): 101.4 and 92.5 and 97.5 | Human alpha thrombin inhibition, slope normalized to DMSO (human α-thrombin; peptide 3.33E+01 uM): 14.8 and 16.8 and 15.8 | Human alpha thrombin inhibition, slope normalized to DMSO (human α-thrombin; peptide 4.07E-03 uM): 99.3 and 94.9 and 93.4 | Human alpha thrombin inhibition, slope normalized to DMSO (human α-thrombin; peptide 4.17E+00 uM): 57.1 (2×) and 55.7 | Human alpha thrombin inhibition, slope normalized to DMSO (human α-thrombin; peptide 5.09E-04 uM): 99.4 and 94.7 and 120.6 | Human alpha thrombin inhibition, slope normalized to DMSO (human α-thrombin; peptide 5.21E-01 uM): 84.0 and 81.7 and 83.0 | Human alpha thrombin inhibition, slope normalized to DMSO (human α-thrombin; peptide 6.36E-05 uM): 93.6 and 95.3 and 99.3 | Human alpha thrombin inhibition, slope normalized to DMSO (human α-thrombin; peptide 6.51E-02 uM): 95.9 and 74.7 and 94.1 | Human alpha thrombin inhibition, slope normalized to DMSO (human α-thrombin; peptide 6.67E+01 uM): 13.4 and 15.6 and 21.8 | Human alpha thrombin inhibition, slope normalized to DMSO (human α-thrombin; peptide 8.14E-03 uM): 96.7 and 95.4 and 97.4 | Human alpha thrombin inhibition, slope normalized to DMSO (human α-thrombin; peptide 8.33E+00 uM): 44.0 and 41.9 and 43.6 | Rat alpha thrombin inhibition, slope normalized to DMSO (rat α-thrombin; [4]): 3.8 and 4.8 and 16.3 | Rat alpha thrombin inhibition, slope normalized to DMSO (rat α-thrombin; peptide 1.67E+01 uM): 8.5 and 7.5 and 19.4 | Rat alpha thrombin inhibition, slope normalized to DMSO (rat α-thrombin; peptide 2.08E+00 uM): 35.4 and 36.0 and 40.9 | Rat alpha thrombin inhibition, slope normalized to DMSO (rat α-thrombin; peptide 3.33E+01 uM): 4.1 and 4.6 and 17.1 | Rat alpha thrombin inhibition, slope normalized to DMSO (rat α-thrombin; peptide 4.17E+00 uM): 23.4 and 23.3 and 26.8 | Rat alpha thrombin inhibition, slope normalized to DMSO (rat α-thrombin; peptide 6.67E+01 uM): 3.8 and 4.6 and 15.5 | Rat alpha thrombin inhibition, slope normalized to DMSO (rat α-thrombin; peptide 8.33E+00 uM): 13.7 and 14.0 and 21.8 | SGF stability, Residual peptide Average (porcine pepsin): 101.05 | SGF stability, Residual peptide (porcine pepsin): 110.75 and 95.01 and 97.38 | remaining at 8 h (porcine pepsin): 101 ± 8% | remaining at 8 h [1]: 93 ± 9% | SIF stability, Residual peptide Average (porcine pancreatin): 93.12 | SIF stability, Residual peptide (porcine pancreatin): 102.84 and 84.15 and 92.36 | PAMPA permeability: % permeability [2]: 0.62 ± 0.14% | Papp at 50 μM [2]: 0.0407 ×10⁻⁶ cm/s | Permeability% Average [2]: 0.6% | Permeability% R1 [2]: 0.77% | Permeability% R3 [2]: 0.57% | microsomal CLint [3, 5]: 99.1 µL/min/mg | microsomal CLint [3, 6]: 76.5 µL/min/mg | microsomal CLint [3, 7]: 112 µL/min/mg | half-life [3, 8]: 14 min | half-life [3, 9]: 18.1 min | half-life [3, 10]: 12.4 min | half-life [3, 11]: 14.8 ± 2.4 min | microsomal CLint [3, 12]: 96 ± 15 µL/min/mg
